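Interpolation was linear, between the two tested concentrations surrounding the appropriate level; five concentrations were tested over 48 hours in 96-well plates. At the GI50, growth is halved.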 Calls of active or inactive are those of the source. Rule as the data show it: active = GI50 up to about 1.1 µM and inactive = higher.
Columns and labels:
Experiment in all cases: NCI tumour cell line growth inhibition, 48 h
A498 = test system: A498
A549 = test system: A549
CAKI-1 = test system: CAKI-1
COLO 205 = test system: COLO 205
HCC 2998 = test system: HCC 2998
HOP-92 = test system: HOP-92
HT-29 = test system: HT-29
MCF7 = test system: MCF7
NCI-H226 = test system: NCI-H226
NCI-H460 = test system: NCI-H460
OVCAR-3 = test system: OVCAR-3
OVCAR-4 = test system: OVCAR-4
RPMI-8226 = test system: RPMI-8226
SK-MEL-5 = test system: SK-MEL-5
SW-620 = test system: SW-620
U-251 = test system: U-251
UACC-257 = test system: UACC-257
CCRF-CEM = test system: CCRF-CEM
HL-60 = test system: HL-60

Measured: GI50

OCCN(CO)CO
inactive: A498 > 100 µM | A549 > 100 µM | CAKI-1 > 100 µM | COLO 205 > 100 µM | HCC 2998 > 100 µM | HOP-92 > 100 µM | HT-29 > 100 µM | MCF7 > 100 µM | NCI-H226 > 100 µM | NCI-H460 > 100 µM | OVCAR-3 > 100 µM | OVCAR-4 > 100 µM | RPMI-8226 86.5 µM | SK-MEL-5 > 100 µM | SW-620 > 100 µM | U-251 > 100 µM | UACC-257 > 100 µM

C=CCOc1ccc(C(=N/NC(=O)c2ccccc2)/N=N/c2ccccc2)cc1OC
inactive: A498 > 100 µM | A549 > 100 µM | CAKI-1 > 100 µM | CCRF-CEM 36.6 µM | COLO 205 55 µM | HCC 2998 37.5 µM | HL-60 37.8 µM | HOP-92 30.1 µM | HT-29 46.5 µM | MCF7 > 100 µM | NCI-H226 60.5 µM | NCI-H460 40.6 µM | OVCAR-3 86.9 µM | OVCAR-4 89.9 µM | SK-MEL-5 50.5 µM | SW-620 > 100 µM | U-251 79.4 µM | UACC-257 > 100 µM

O=[N+]([O-])c1ccc(/N=N\c2c(O)ccc3ccccc23)c([N+](=O)[O-])c1
inactive: A498 > 100 µM | A549 > 100 µM | CAKI-1 > 100 µM | CCRF-CEM 29.4 µM | COLO 205 > 100 µM | HCC 2998 > 100 µM | HOP-92 > 100 µM | HT-29 > 100 µM | MCF7 > 100 µM | NCI-H226 > 100 µM | NCI-H460 > 100 µM | OVCAR-3 > 100 µM | OVCAR-4 > 100 µM | RPMI-8226 > 83.4 µM | SK-MEL-5 > 100 µM | SW-620 > 100 µM | U-251 > 100 µM | UACC-257 > 100 µM

CC(C)[C@H](NC(=O)OCc1ccccc1)C(=O)N[C@H](/C=C/C(=O)OC(C)(C)C)CO
inactive: A498 > 100 µM | A549 > 100 µM | CAKI-1 > 100 µM | CCRF-CEM 28.1 µM | COLO 205 80.4 µM | HCC 2998 > 100 µM | HL-60 57.1 µM | HOP-92 > 100 µM | HT-29 > 100 µM | MCF7 > 100 µM | NCI-H226 > 100 µM | NCI-H460 > 100 µM | OVCAR-3 > 100 µM | OVCAR-4 > 100 µM | SK-MEL-5 > 100 µM | SW-620 92.9 µM | UACC-257 > 100 µM

C=C(C)[C@@H]1CC[C@]2(C(=O)O)CC[C@]3(C)[C@H](CC[C@@H]4[C@@]5(C)CC[C@H](C(=O)/C=C/c6ccc(O)cc6)C(C)(C)[C@@H]5CC[C@]43C)[C@@H]12
inactive: A498 5.07 µM | A549 9.73 µM | CAKI-1 2.64 µM | CCRF-CEM 2.39 µM | COLO 205 2.39 µM | HCC 2998 3.21 µM | HL-60 1.15 µM | HOP-92 11.9 µM | HT-29 3.38 µM | MCF7 3.67 µM | NCI-H460 2.73 µM | OVCAR-3 3.39 µM | OVCAR-4 9.98 µM | SK-MEL-5 2.55 µM | SW-620 2.93 µM | U-251 2.93 µM | UACC-257 3.58 µM

S=c1oc(CCCCCCCCc2nn(CNc3ccc(Cl)cc3)c(=S)o2)nn1CNc1ccc(Cl)cc1
inactive: A498 > 100 µM | A549 > 100 µM | CAKI-1 33.8 µM | COLO 205 7.38 µM | HCC 2998 > 100 µM | HOP-92 > 100 µM | HT-29 > 100 µM | MCF7 > 100 µM | NCI-H226 > 100 µM | NCI-H460 > 100 µM | OVCAR-4 > 100 µM | RPMI-8226 6.78 µM | SK-MEL-5 3.27 µM | SW-620 > 100 µM | U-251 > 100 µM | UACC-257 40 µM

OCC(CN1CCCCC1)(CN1CCCCC1)CN1CCCCC1
inactive: A498 > 100 µM | A549 > 100 µM | CAKI-1 > 100 µM | CCRF-CEM > 100 µM | COLO 205 > 100 µM | HCC 2998 > 100 µM | HL-60 > 100 µM | HOP-92 > 100 µM | HT-29 > 100 µM | MCF7 > 100 µM | NCI-H226 > 100 µM | NCI-H460 > 100 µM | OVCAR-3 > 100 µM | OVCAR-4 > 100 µM | SK-MEL-5 > 100 µM | SW-620 > 100 µM | U-251 > 100 µM | UACC-257 > 100 µM

N#CCCNCCN(CCN(C(=O)Nc1ccccc1)c1ccccc1)C(=O)Nc1ccccc1
inactive: A498 51.2 µM | A549 48.1 µM | CCRF-CEM 78.9 µM | COLO 205 20.2 µM | HCC 2998 16.1 µM | HL-60 35.9 µM | HOP-92 40.6 µM | HT-29 33.2 µM | MCF7 37.8 µM | NCI-H226 54.7 µM | NCI-H460 37.9 µM | RPMI-8226 57 µM | SK-MEL-5 19.9 µM | SW-620 59.7 µM | U-251 > 100 µM | UACC-257 15.7 µM

O=C(O)c1cc2ccccc2c(S(=O)(=O)O)c1O
inactive: A498 > 100 µM | A549 > 100 µM | CAKI-1 > 100 µM | CCRF-CEM > 100 µM | COLO 205 > 100 µM | HCC 2998 > 100 µM | HL-60 > 100 µM | HOP-92 > 100 µM | HT-29 > 100 µM | MCF7 > 100 µM | NCI-H460 > 100 µM | OVCAR-3 > 100 µM | OVCAR-4 > 100 µM | RPMI-8226 > 100 µM | SK-MEL-5 > 100 µM | SW-620 > 100 µM | U-251 > 100 µM | UACC-257 > 100 µM

O=C(O)C1(Cc2ccc3c(c2)CCC3)Cc2ccccc2C1=O (stereo unspecified)
inactive: A498 42.5 µM | A549 42.3 µM | CCRF-CEM 35.5 µM | COLO 205 52.6 µM | HCC 2998 43.5 µM | HL-60 43.5 µM | HOP-92 20.8 µM | HT-29 > 100 µM | MCF7 > 100 µM | NCI-H226 91.4 µM | NCI-H460 50.1 µM | OVCAR-3 54 µM | OVCAR-4 55.6 µM | RPMI-8226 35.8 µM | SK-MEL-5 79.4 µM | SW-620 75.7 µM | U-251 38.4 µM | UACC-257 > 100 µM

CC(=O)/C=N/CC(=O)O
inactive: A498 > 100 µM | A549 > 100 µM | CAKI-1 > 100 µM | CCRF-CEM > 100 µM | COLO 205 > 100 µM | HL-60 > 100 µM | HOP-92 > 100 µM | HT-29 > 100 µM | MCF7 > 100 µM | NCI-H226 > 100 µM | NCI-H460 > 100 µM | OVCAR-3 > 100 µM | OVCAR-4 > 100 µM | RPMI-8226 > 100 µM | SK-MEL-5 > 100 µM | SW-620 > 100 µM | U-251 > 100 µM | UACC-257 > 100 µM
